Measured values: article PMC12214830, “The human RIF1-Long isoform interacts with BRCA1 to promote recombinational fork repair under DNA replication stress” (Nature Communications, 2025)

Tests used:
[1] = test system: tandem BRCT domains of MDC1; assay: fluorescence polarisation, tandem BRCT domains of MDC1; type: binding; settings: peptide 200 nM, 25 mM HEPES pH 7.5, 200 mM NaCl
Protocol: (§1) Recombinant BRCT2 domain proteins were expressed as N-terminally HIS-SUMO tagged constructs from a modified pET15b vector in Escherichia coli BL21(DE3) host strain (Novagen). Cell pellets were re-suspended in lysis buffer containing 50 mM HEPES pH 7.5, 200 mM NaCl, 0.5 mM TCEP and supplemented with 10 U DNASE Turbo (ThermoFisher), then disrupted by sonication and the resulting lysate clarified by centrifugation at 40,000 × g for 60 min at 4 °C. […]
(§2) For Fluorescence Polarisation experiments, a Superdex 75 16/60 size exclusion column (GE Healthcare) was used to purify the His6-SUMO-BRCT2 proteins to homogeneity in 25 mM HEPES pH 7.5, 200 mM NaCl, 1 mM EDTA, 0.25 mM TCEP, 0.02% (v/v) Tween-20.
(§3) Fluorescein-labelled peptides (Flu-RIF1pS2265 Flu-[…](pS)PKFKSSK, Flu-BRIP1pS990 Flu-[…](pS)PTFNKQT and Flu-H2AXpS140 Flu-[…](pS)QEY, where (pS) is phosphorylated Serine) (Peptide Protein Research Ltd, Bishops Waltham, UK) at a concentration of 200 nM, were incubated at room temperature with increasing concentrations of His6-SUMO-BRCT2 protein in 25 mM HEPES pH 7.5, 200 mM NaCl, 1 mM EDTA, 0.25 mM TCEP, 0.02% (v/v) Tween-20 in a black 96-well polypropylene plate (VWR, Lutterworth, UK). […] Fluorescence polarisation was measured in a CLARIOstar multimode microplate reader (BMG Labtech GmbH, Offenburg, Germany). […]

[2] = test system: BRCA1-BRCT domain (His6-SUMO-BRCT2); assay: fluorescence polarisation, tandem BRCT domains of BRCA1; type: binding, human
Protocol: Recombinant BRCT2 domain proteins were expressed as N-terminally HIS-SUMO tagged constructs from a modified pET15b vector in Escherichia coli BL21(DE3) host strain (Novagen). Cell pellets were re-suspended in lysis buffer containing 50 mM HEPES pH 7.5, 200 mM NaCl, 0.5 mM TCEP and supplemented with 10 U DNASE Turbo (ThermoFisher), then disrupted by sonication and the resulting lysate clarified by centrifugation at 40,000 × g for 60 min at 4 °C. The supernatant was applied to a 5 ml HiTrap TALON crude column (GE Healthcare, Little Chalfont, UK), washed first with buffer containing 50 mM HEPES pH 7.5, 1000 mM NaCl, 0.5 mM TCEP, followed by lysis buffer supplemented with 10 mM imidazole, with any retained protein then eluted by application of the same buffer supplemented with 250 mM imidazole. The eluted protein was concentrated before further purification by size exclusion chromatography.
as §2
Fluorescein-labelled peptides (Flu-RIF1pS2265 Flu-[…](pS)PKFKSSK, Flu-BRIP1pS990 Flu-[…](pS)PTFNKQT and Flu-H2AXpS140 Flu-[…](pS)QEY, where (pS) is phosphorylated Serine) (Peptide Protein Research Ltd, Bishops Waltham, UK) at a concentration of 200 nM, were incubated at room temperature with increasing concentrations of His6-SUMO-BRCT2 protein in 25 mM HEPES pH 7.5, 200 mM NaCl, 1 mM EDTA, 0.25 mM TCEP, 0.02% (v/v) Tween-20 in a black 96-well polypropylene plate (VWR, Lutterworth, UK). Incubation with Lambda phosphatase (NEB, Hitchin, UK) supplemented with 1 mM MnCl2 was used to remove the phosphorylation on the peptides. Fluorescence polarisation was measured in a CLARIOstar multimode microplate reader (BMG Labtech GmbH, Offenburg, Germany). Binding curves represent the mean of 4 independent experiments, with error bars of 1 standard deviation. […]

[3] = test system: tandem BRCT domains of 53BP1; assay: fluorescence polarisation, tandem BRCT domains of 53BP1; type: binding; settings: peptide 200 nM, 25 mM HEPES pH 7.5, 200 mM NaCl
Protocol: as §1, §2, §3

[4] = test system: tandem BRCT domains of TOPBP1; assay: fluorescence polarisation, tandem BRCT domains of TOPBP1; type: binding; settings: peptide 200 nM, 25 mM HEPES pH 7.5, 200 mM NaCl
Protocol: as §1, §2, §3

Substance: Flu-GYGFLSPGSR(pS)PKFKSSK [RIF1-L phosphoS^2265PKF peptide, fluorescein-labelled RIF1-L-derived phosphopeptide]
- binding to tandem BRCT domains of MDC1 [1]: did not bind
- binding to BRCA1-BRCT ([2]; fluorescein-labelled peptide 200 nM, 25 mM HEPES pH 7.5, 200 mM NaCl, room temperature, mean of 4 independent experiments): bound strongly
- interaction affinity relative to BRIP1 phospho-peptide ([2]; peptide 200 nM, 25 mM HEPES pH 7.5, 200 mM NaCl): comparable to that for a phospho-peptide from BRIP1
- binding to BRCA1-BRCT after λ phosphatase ([2]; peptide treated with Lambda phosphatase, 1 mM MnCl2): abolished binding
- binding to tandem BRCT domains of 53BP1 [3]: did not bind
- binding to tandem BRCT domains of TOPBP1 [4]: did not bind
